We go through one compound from paper PMC7187627 (Antimicrobial Agents and Chemotherapy, 2019).

A short description of series [1]: Fecal (stool) pharmacokinetics, multiple-ascending-dose phase 1 study. Type of series: in vivo, human. Conditions: for Cstool,ss (concentration in stool) / fe,stool (fe,feces,ss, fraction of dose excreted unchanged in feces over 24 h): day 10, median (minimum, maximum); for fe,stool (fe,feces,ss, fraction of dose excreted unchanged in feces over 24 h): % in Table S4. As to the method: PK method development, validation, and sample testing for plasma, feces, and urine were performed at KCAS, LLC (Shawnee, KS). Plasma, urine, and fecal concentrations of CRS3123 were determined by means of validated, sensitive, and specific high-performance liquid chromatography/tandem mass spectrometric (HPLC-MS/MS) assays. The lower limits of quantification of CRS3123 in plasma, feces, and urine were 10.0 ng/ml, 60.0 ng/g, and 100.0 ng/ml, respectively. The validated urine PK assay measured total free CSR3123. Since the majority of urinary CRS3123 was excreted as glucuronide conjugates ([32]), an enzymatic cleavage step using glucuronidase was added to the process to convert the glucuronide conjugates to free CRS3123 for the urine analysis.
A selective, accurate, and reproducible analytical method using LC-MS/MS for the quantitation of CRS3123 in human fecal homogenate was linear over a range of 10.0 to 2000 ng/ml (fecal homogenate) or 60.0 to 12,000 ng/g (fecal material). Since 11 fecal samples collected on day 10 exceeded the upper limit, this method was amended by validating it for an extended range of 50.0 to 3,000 μg/ml (fecal homogenate) or […] (fecal material).
(iii) Fecal PK. Twenty-four-hour fecal collection was initiated for all subjects following dose 1 and dose 19 of study drug for measurement of CRS3123 concentrations in feces. A listing of individual PK fecal sample collection start and stop dates/times, fecal weight excreted for each planned collection, CRS3123 concentration in each fecal collection, and amount of CRS3123 excreted in each fecal collection was provided for each fecal collection for each treatment. The bioanalytical method was amended to allow for reanalysis of samples originally outside the linear range.
The following parameters were calculated from the fecal data: amount of unchanged drug excreted in feces (in nanograms) following doses 1 and 2 (Ae,feces) or doses 19 and 20 (Ae,feces,ss) calculated as fecal concentration × fecal weight (in the case of multiple fecal samples, Ae,feces and Ae,feces,ss were determined as the sum of the amount calculated in each fecal sample collected during the 24-h collection period), and fraction of dose excreted unchanged in feces (fe,feces,ss) over a 24-h interval after multiple dosing (expressed as a percentage), calculated as Ae,feces,ss divided by dose 19 plus dose 20.
Due to the 12-h dosing interval utilized in this study, fe,feces,ss was calculated only after multiple dosing on day 10, when CRS3123 would be expected to be at or near steady state. […] A subject listing of individual fecal PK parameters for each treatment was provided for day 1 and for day 10.

Series [2] can be described thus: Drug product stability (ICH Q1A(R2)). Format: physicochemical. Conditions: 200-mg gelatin capsules, room temperature. An excerpt:
CRS3123 was provided by Crestone, Inc., in the form of dihydrochloride salt (CRS3123.2HCl) and formulated into 200-mg gelatin capsules by SRI International (Palo Alto, CA). Drug product stability specifications were met beyond the study period [stable for at least 60 months storage at room temperature monitored according to ICH Guidance for Industry Q1A(R2) Stability Testing of New Substances and Products].

In series [3] the test system is C. difficile. More on the design: method as in PMID 19258353. As to conditions: cited from earlier work.
On the set-up of series [4]: method as in PMID 28584140. As to conditions: cited from earlier work.
The subject of series [5] is type 1 methionyl-tRNA synthetase (MetRS). More on the design: method as in PMID 19258353, PMID 19251726. As to conditions: cited from earlier work.
Series [6] deals with C. difficile. More on the design: method as in PMID 19258353, PMID 19251726. As to conditions: cited from earlier work.
In series [7] the test system is Bacterial strains that express type 2 MetRS. On the set-up: method as in PMID 19240076. Conditions: most Gram-negative bacteria, Bacteroides, bifidobacteria, actinobacteria, lactobacilli; cited from earlier work.

In brackets after ≈: the same amount, converted by molar mass. Several values for one entry are separate records, joined by “and”; a condition that tells them apart may be missing. Equal values may be shown once.

Take `O=c1cc(NCCCN[C@@H]2CCOc3c(Br)cc(Br)cc32)[nH]c2ccsc12` [CRS3123]: the “Cstool,ss (concentration in stool)” value is 2,115 μg/g and 2,115 (966, 4,430) μg/g in series [1] (200 mg Q12h oral); 5,390 μg/g and 5,390 (2,920, 8,700) μg/g in series [1] (400 mg Q12h oral); 8,280 μg/g and 8,280 (2,200, 14,000) μg/g in series [1] (600 mg Q12h oral). Further, the “fe,stool (fe,feces,ss, fraction of dose excreted unchanged in feces over 24 h)” value in series [1] (200 mg Q12h oral) was 24.9% and 24.9 (1.9, 68.8) %; in series [1] (400 mg Q12h oral), 52.0%; in series [1] (600 mg Q12h oral), 43.1% and 43.1 (11.0, 125.8) %. Moreover, the concentrations in feces result in series [1] (all three doses tested) is “above 1,000 μg/g”. In addition, the “fecal concentrations relative to MIC90” value in series [1] (human, in vivo) is recorded as “substantially above the MIC90 value”. The “drug product stability, storage time” value in series [2] is recorded as “at least 60 months”. Further, the MIC90 (in general, an inhibitory concentration at the 90% level, which refers to growth in some studies and to a panel of isolates in others) in the series on C. difficile [3] was 1 µg/mL (≈ 1.95 µM). Besides, the “share of oral dose metabolized into glucuronide conjugates detectable in urine” value in series [4] is recorded as “a small fraction”. Further, the “systemic absorption following oral dosing” value in series [4] (preclinical testing and SAD study 100 mg to 1,200 mg) is given as “low systemic absorption”. Further, the safety and tolerability result in series [4] (single oral doses 100 mg to 1,200 mg) was “safe and well tolerated”. In series [5], the “inhibition of type 1 MetRS” value is listed as “potently inhibits”. In addition, in the series on C. difficile [6], the “C. difficile toxin production and sporulation” value was “inhibits”. The “susceptibility of strains expressing type 2 MetRS” value in series [7] is “virtually no susceptibility”.
